Among the test systems are COLO 205 colon; HOP-92 NSCLC; K-562 leukemia; LOX IMVI melanoma; OVCAR-5 ovarian; OVCAR-8 ovarian; RXF 393 renal; SF-295 CNS; SF-539 CNS; T-47D breast.
Holding throughout (experiment): inhibition of tumour cell growth, NCI panel, 48 h

SMILES strings stand for the structures.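 Five compound concentrations were applied to cells in 96-well plates for 48 hours; endpoints were derived by simple linear interpolation of the resulting dose-response curve. Abbreviation: GI50, concentration required for 50% inhibition of growth. TGI denotes the concentration required for complete inhibition of growth.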

As to `C[C@]12CC/C(=N\O)C=C1CC[C@@H]1C2CC[C@@]2(C)C1CC[C@@H]2OC1CCCCO1` (stereo partly drawn), the TGI in the assay with COLO 205 colon is 32.6 µM; in the assay with HOP-92 NSCLC, 31.9 µM; in the assay on K-562 leukemia, 46.3 µM; with LOX IMVI melanoma it was 37.4 µM; in the assay on OVCAR-5 ovarian, 29 µM; in the assay with OVCAR-8 ovarian, greater than 100 µM. For the same compound, the TGI in the assay with RXF 393 renal was 50.5 µM; in the assay with SF-295 CNS, 35.8 µM; with SF-539 CNS, greater than 10 µM.

Turning to `CC1=C(O)C(=O)C2C(=O)C1C1Cc3ccccc3C21` (stereo not drawn), the TGI in the assay on COLO 205 colon, in the assay with HOP-92 NSCLC, in the assay on K-562 leukemia, with LOX IMVI melanoma, in the assay with OVCAR-5 ovarian and in the assay on OVCAR-8 ovarian was greater than 100 µM throughout. The TGI in the assay on RXF 393 renal, in the assay with SF-295 CNS and in the assay with SF-539 CNS was greater than 100 µM each time.

On to `CO/N=C(\C)c1ccc(Nc2cc(-c3ccccc3)nc3ccc(OC)cc23)cc1`, for which the GI50 in the assay with COLO 205 colon is 7.02 µM; in the assay with HOP-92 NSCLC, 2.14 µM; in the assay on K-562 leukemia, 5.42 µM; in the assay with OVCAR-5 ovarian, 5.2 µM; in the assay on SF-295 CNS, 2.02 µM; with SF-539 CNS it was 2.72 µM. Besides, the GI50 in the assay on T-47D breast is 33.7 µM. Also, the TGI is greater than 100 µM in the assay with COLO 205 colon; 6.77 µM in the assay on HOP-92 NSCLC; greater than 100 µM with K-562 leukemia; 40.3 µM in the assay with OVCAR-5 ovarian; 4.82 µM in the assay with SF-295 CNS; 4.74 µM in the assay on SF-539 CNS. In the assay on T-47D breast, the TGI was greater than 100 µM.

As for `NC(=O)/N=C1/CCC2C3CCCC2C13`, the TGI in the assay with COLO 205 colon, with HOP-92 NSCLC, in the assay on K-562 leukemia, with LOX IMVI melanoma, with OVCAR-5 ovarian and with OVCAR-8 ovarian was greater than 100 µM throughout. Moreover, the TGI with RXF 393 renal, in the assay with SF-295 CNS and in the assay on SF-539 CNS was greater than 100 µM in each case.

With `O=C(c1ccccc1)C(CN1CCCCC1)c1ccccc1` (stereo not drawn), the GI50 in the assay with COLO 205 colon is 1.57 µM; in the assay on HOP-92 NSCLC it was 1.16 µM; with K-562 leukemia it was 0.712 µM; in the assay with LOX IMVI melanoma it was 0.478 µM; with OVCAR-5 ovarian, 2.67 µM; in the assay with OVCAR-8 ovarian it was 1.7 µM. Further, the GI50 with RXF 393 renal was 1.42 µM; in the assay with SF-295 CNS it was 4.85 µM; in the assay with SF-539 CNS, 1.96 µM. The TGI with COLO 205 colon was determined as 3.14 µM; in the assay on HOP-92 NSCLC, 3.88 µM; in the assay on K-562 leukemia, 14.2 µM; in the assay with LOX IMVI melanoma, 1.7 µM; in the assay with OVCAR-5 ovarian it was 5.43 µM; in the assay on OVCAR-8 ovarian, 4.36 µM. Further, the TGI is 2.74 µM with RXF 393 renal, 17.5 µM with SF-295 CNS and 3.94 µM with SF-539 CNS.

For `Cn1c2c(c3ccc([N+](=O)[O-])cc3c1=O)C(=O)c1ccccc1-2`, the GI50 in the assay with COLO 205 colon is greater than 100 µM; in the assay with HOP-92 NSCLC it was greater than 100 µM; in the assay on LOX IMVI melanoma, greater than 100 µM; in the assay on OVCAR-5 ovarian it was greater than 100 µM; in the assay with OVCAR-8 ovarian, greater than 100 µM; in the assay with SF-295 CNS, 22.7 µM. Also, the GI50 in the assay with SF-539 CNS and in the assay on T-47D breast was greater than 100 µM each time. Also, the TGI in the assay on COLO 205 colon, with HOP-92 NSCLC, with LOX IMVI melanoma, in the assay on OVCAR-5 ovarian, with OVCAR-8 ovarian and in the assay on SF-295 CNS was greater than 100 µM each time. For the same compound, the TGI in the assay with SF-539 CNS and in the assay on T-47D breast was greater than 100 µM each time.

As for `COc1ccc(/C(Cl)=C(\C=N/O)c2ccc(OC)c(OC)c2)cc1OC`, the TGI in the assay on COLO 205 colon, with HOP-92 NSCLC, in the assay on K-562 leukemia, in the assay with LOX IMVI melanoma, in the assay with OVCAR-5 ovarian and with OVCAR-8 ovarian was greater than 100 µM throughout. Besides, the TGI with RXF 393 renal, in the assay on SF-295 CNS and in the assay with SF-539 CNS was greater than 100 µM in each case.

With `COC(=O)C(C(=O)C(=O)Nc1ccc([N+](=O)[O-])cc1[N+](=O)[O-])c1nc2ccc(Cl)cc2[nH]c1=O` (stereo not drawn), the TGI with COLO 205 colon, in the assay on HOP-92 NSCLC, with K-562 leukemia, with LOX IMVI melanoma, in the assay on OVCAR-5 ovarian and in the assay with OVCAR-8 ovarian was greater than 100 µM throughout. The TGI with RXF 393 renal, with SF-295 CNS and in the assay on SF-539 CNS was greater than 100 µM in each case.

`CC(Nc1ccc(S(=O)(=O)N=C(N)N)cc1)c1c2ccccc2nc2ccccc12` (stereo not drawn): the TGI was greater than 100 µM in the assay with COLO 205 colon; 55.5 µM with HOP-92 NSCLC; 99.4 µM in the assay with K-562 leukemia; greater than 100 µM in the assay on LOX IMVI melanoma; greater than 100 µM with OVCAR-5 ovarian; 76.8 µM in the assay with OVCAR-8 ovarian. The TGI with RXF 393 renal is 85.3 µM; in the assay on SF-295 CNS, greater than 100 µM; in the assay with SF-539 CNS it was 63.4 µM.

In the case of `N=c1ccn(O)cc1/C=C1/C(=O)Nc2ccccc21`, the GI50 in the assay with COLO 205 colon, with HOP-92 NSCLC, in the assay on K-562 leukemia, in the assay with LOX IMVI melanoma, in the assay with OVCAR-5 ovarian and in the assay with OVCAR-8 ovarian was greater than 100 µM in each case. The GI50 in the assay on SF-295 CNS, with SF-539 CNS and in the assay on T-47D breast was greater than 100 µM in each case. Further, the TGI in the assay on COLO 205 colon, in the assay on HOP-92 NSCLC, with K-562 leukemia, with LOX IMVI melanoma, in the assay with OVCAR-5 ovarian and in the assay on OVCAR-8 ovarian was greater than 100 µM in each case. Further, the TGI with SF-295 CNS, with SF-539 CNS and in the assay with T-47D breast was greater than 100 µM each time.

For `CC(=O)C1=C(O)C=C2Oc3c(C(=O)/C=C/c4c(Cl)cccc4Cl)c(O)c(C)c(O)c3[C@]2(C)C1=O`, the GI50 was 2.34 µM with COLO 205 colon; 0.619 µM in the assay with K-562 leukemia; 1.13 µM with LOX IMVI melanoma; 3.09 µM in the assay with OVCAR-5 ovarian; 0.533 µM in the assay with OVCAR-8 ovarian; 2.32 µM with RXF 393 renal. Further, the GI50 is 0.634 µM in the assay with SF-295 CNS, 2.19 µM with SF-539 CNS and 0.38 µM in the assay with T-47D breast. Moreover, the TGI came out at 5.25 µM in the assay on COLO 205 colon; 15 µM in the assay on K-562 leukemia; 3.64 µM in the assay on LOX IMVI melanoma; 8.13 µM with OVCAR-5 ovarian; 2.06 µM with OVCAR-8 ovarian; 5.03 µM in the assay with RXF 393 renal. The values for the TGI with SF-295 CNS, in the assay with SF-539 CNS and with T-47D breast were 3.17 µM, 4.91 µM and 2.41 µM, respectively.

The values above are taken from PubChem BioAssay (NCI).
